Reference: patent publication US11427560B2, “Composition and methods for inhibiting mammalian sterile 20-like kinase 1” (The Scripps Research Institute, priority 2015, dated 2022)

Key:
[1] = test system: beta cells; assay: Beta cell apoptosis with increasing neratinib concentrations (FIG. 3); assay type: cell-based; conditions: increasing concentrations of neratinib
[2] = test system: human islets; assay: High glucose/palmitate induced apoptotic activity in human islets; conditions: high glucose and palmitate (HG/Pal), 25 μM neratinib, FIG. 8
Description: Freshly isolated human islets from a single donor were exposed to high glucose and palmitate (HG/Pal) to induce apoptosis.

SMILES: CCOc1cc2ncc(C#N)c(Nc3ccc(OCc4ccccn4)c(Cl)c3)c2cc1NC(=O)/C=C/CN(C)C [neratinib]
- Beta cell apoptosis [1]: decrease with exposure to increasing concentrations
- MST1 phosphorylation (pMST1) [2]: inhibited
- induction of cleaved caspase 3 (Cl Casp3) [2]: inhibited
